Test [1] has as its target T1, Tyrosine-protein phosphatase non-receptor type 1 (Homo sapiens) (UniProt P18031).
T1 sequence (whole entry): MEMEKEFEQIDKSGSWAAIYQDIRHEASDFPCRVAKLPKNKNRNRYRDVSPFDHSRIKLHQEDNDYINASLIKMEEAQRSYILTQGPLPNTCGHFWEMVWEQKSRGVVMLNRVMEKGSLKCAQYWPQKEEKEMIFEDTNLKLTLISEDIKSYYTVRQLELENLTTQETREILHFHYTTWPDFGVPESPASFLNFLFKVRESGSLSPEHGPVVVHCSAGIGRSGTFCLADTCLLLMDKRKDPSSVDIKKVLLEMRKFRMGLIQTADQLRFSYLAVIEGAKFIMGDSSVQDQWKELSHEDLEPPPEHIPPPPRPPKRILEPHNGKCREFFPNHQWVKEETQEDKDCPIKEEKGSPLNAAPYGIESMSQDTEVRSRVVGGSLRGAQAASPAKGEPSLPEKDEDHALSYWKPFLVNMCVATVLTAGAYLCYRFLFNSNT
The note with it: 23.1 uM.
Description: Inhibition of PTP1B (unknown origin) at 23.1 uM

The target in test [2] is T2, Tyrosine-protein phosphatase non-receptor type 1 (Homo sapiens, UniProt P18031).
T2 sequence (P18031 whole entry): T1 sequence (whole entry)
Briefly: Inhibition of PTP1B (unknown origin).

Test [3] has as its target T1, Tyrosine-protein phosphatase non-receptor type 1 (Homo sapiens). Nature of the test: Inhibition of PTP1B (unknown origin) at 20.7 uM.

SMILES strings stand for the structures. Activity calls are given as the source filed them. The rule behind the calls is not given here.

Usually inhibition stands for the drop in the measured response relative to a control, in per cent. The term IC50 denotes the concentration that inhibits the measured activity by half. Lower therefore signals higher potency.

`C/C(=C\Cc1c(O)cc(O)c2c1C[C@@H](C)OC2=O)CC/C=C(\C)CCC(O)C(C)(C)O` (stereo not given in full) came in with an inhibition in test [1] of 40%.
As for `C[C@H]1OC(=O)c2c(O)cc3c(c2[C@H]1O)C[C@H]1[C@@]2(C)C=CC(=O)C(C)(C)[C@@H]2C[C@H](O)[C@]1(C)O3`, in test [2], it took 8.5 µM to reach half-maximal inhibition (IC50).
The molecule `C[C@@H]1Cc2c3c(cc(O)c2C(=O)O1)O[C@@]1(C)[C@@H](O)C[C@H]2C(C)(C)C(=O)CC[C@]2(C)[C@@H]1C3` came in with an IC50 in test [2] of 14.9 µM.
In test [2], `C[C@@H]1Cc2c3c(cc(O)c2C(=O)O1)O[C@@]1(C)CC[C@H]2C(C)(C)C(=O)C=C[C@]2(C)[C@@H]1C3` gave an IC50 of 8.4 µM.
Consider `CC(=O)O[C@@H]1c2c3c(cc(O)c2C(=O)O[C@@H]1C)O[C@@]1(C)[C@@H](O)C[C@H]2C(C)(C)C(=O)C=C[C@]2(C)[C@@H]1C3`, for which the inhibition entry in test [3] is “inactive”.

Source of the values: ChEMBL document CHEMBL3600359, “Verruculides A and B, two new protein tyrosine phosphatase 1B inhibitors from an Indonesian ascidian-derived Penicillium verruculosum” (Bioorg Med Chem Lett, 2015).
